Measured values reported in US11617777B2, “Cytotoxic and anti-mitotic compounds, and methods of using the same” (ZYMEWORKS BC INC., priority 2013, dated 2023).
Read-outs that look alike come from different tables or passages of the source.

Test system: Jurkat cells
Test: Cytotoxicity of compounds, CellTiter-Glo
Format: cell-based, Human
Settings: read-out: EC50
Description: Cell lines used: Human T-cell leukemia cell line Jurkat (ATCC: TIB-152); HCC1954 (ATCC: CRL. 2338); Human Pancreatic cells lines: AsPC-1 (ATCC: CRL-1682), BxPC-3 (ATCC: CRL.1687), HPAF-II (ATCC: CRL.1997), MiaPaCa2 (ATCC: CRL.1420), PANC-1 (ATCC: CRL.1469), Capan-1 (ATCC: HTB-79), Capan-2 (ATCC: HTB-80) and the Human gastric carcinoma cell line NCI-N87 (ATCC: CRL. 5822); AML-193 (ATCC: CRL.9589), CCRF-CEM (ATCC: CCL-119), DU145 (ATCC: HTB-81), PC-3 (ATCC: CRL.1435), A-431 (ATCC: CRL.1555), HT-29 (ATCC: HTB-38), A-172 (ATCC: CRL.1620), NCI-H358 (ATCC: CRL.5807), A549 (ATCC: CCL-185), Colo-205 (ATCC: CCL-222), MDA-MB-231 (ATCC: HTB-26), OVCAR-3 (ATCC: HTB-161), OV-90 (ATCC: CRL.11732), OE19 (Sigma: 96071721), RT 112/84 (Sigma: 85061106).
On the day prior to adding compounds, HCC1954 AsPC-1, BxPC-3, HPAF-II, MiaPaCa2, PANC-1, Capan-1, Capan-2 and NCI-N87 cells were added to opaque-walled 96-well tissue culture-treated microtiter plates using complete growth medium at a density of 2500 cells/100 microlitre (uL) of medium. These adherant cell lines cells were incubated for one night at 37° C./5% CO2 to allow the cells to attach to the microtiter plate surface. On the day that compounds were added, Jurkat cells are added to separate 96-well microtiter plates at 2500 cells/100 uL using the same growth medium as HCC1954. Compound were first serially diluted using dimethyl sulfoxide, and then the prepared dilutions are added to complete growth medium at five-times the final concentration—compounds were then titrated 1:3, eight steps. A control with no compound (growth medium alone) was included on each microtiter plate in sextuplicate. The prepared compounds titrations were added (twenty-five uL/well) in triplicate. The cells and compound titrations were incubated at 37° C./5% CO2 for three nights. After the incubation, cell viability is measured using CellTiter-Glo® reagent by adding thirty uL of prepared CellTiter-Glo® to each assay well. The assay is incubated for at least twenty minutes in the dark prior to measuring emitted luminescence using a microplate luminometer (500 ms integration time). The collected relative luminescence units (RLU) are converted to % cytotoxicity using the Growth medium alone control mentioned above (% Cytotoxicity=1−[Well RLU/average medium alone control RLU]).
GraphPad Prism was used for generation of EC50 values using three parameter non-linear regression curve fitting.

[1] = Homo sapiens, Jurkat, Table 3, Cytotoxicity of Compounds on Jurkat Cells
[2] = Homo sapiens, Jurkat, Table 6, Compound Cytotoxicity on Jurkat
[3] = Homo sapiens, Jurkat, Table 7, Cytotoxicity on Jurkat

Row | Compound | EC50 [2] [nM] | further results
1 | CN[C@H](C(=O)N[C@H](C(=O)N(C)[C@H](/C=C(\C)C(=O)NS(=O)(=O)c1cc(C(=O)OC)ccc1Cl)C(C)C)C(C)(C)C)C(C)(C)c1ccccc1 [Compound 74, methyl 4-chloro-3-(N—((S,E)-2,5-dimethyl-4-((S)—N,3,3-trimethyl-2-((S)-3-methyl-2-(methylamino)-3-phenylbutanamido)butanamido)hex-2-enoyl)sulfamoyl)benzoate] | – | EC50 [1]: 0.087 nM
2 | CN[C@H](C(=O)N[C@H](C(=O)N(C)[C@H](/C=C(\C)C(=O)NS(=O)(=O)Cc1ccc(CNC(=O)C(F)(F)F)cc1)C(C)C)C(C)(C)C)C(C)(C)c1ccccc1 [Compound 76, (S,E)-2,5-dimethyl-N-(4-((2,2,2-trifluoroacetamido)methyl)benzylsulfonyl)-4-((S)—N,3,3-trimethyl-2-((S)-3-methyl-2-(methylamino)-3-phenylbutanamido)butanamido)hex-2-enamide] | – | EC50 [1]: 0.328 nM
3 | CN[C@H](C(=O)N[C@H](C(=O)N(C)[C@H](/C=C(\C)C(=O)NS(=O)(=O)c1ccc(CNC(=O)C(F)(F)F)cc1)C(C)C)C(C)(C)C)C(C)(C)c1ccccc1 [Compound 84, (S,E)-2,5-dimethyl-N-(4-((2,2,2-trifluoroacetamido)methyl)phenylsulfonyl)-4-((S)—N,3,3-trimethyl-2-((S)-3-methyl-2-(methylamino)-3-phenylbutanamido)butanamido)hex-2-enamide] | – | EC50 [1]: 1.39 nM
4 | CN[C@H](C(=O)N[C@H](C(=O)N(C)[C@H](/C=C(\C)C(=O)NS(=O)(=O)Cc1ccccc1)C(C)C)C(C)(C)C)C(C)(C)c1ccc(-c2ccc(OC)cc2)cc1 [Compound 88, (S,E)-N-(benzylsulfonyl)-4-((S)-2-((S)-3-(4′-methoxybiphenyl-4-yl)-3-methyl-2-(methylamino)butanamido)-N,3,3-trimethylbutanamido)-2,5-dimethylhex-2-enamide] | 0.641 | –
5 | CN[C@H](C(=O)N[C@H](C(=O)N(C)[C@H](/C=C(\C)C(=O)NS(=O)(=O)Cc1ccccc1)C(C)C)C(C)(C)C)C(C)(C)c1ccc(OC)cc1 [Compound 91, (S,E)-N-(benzylsulfonyl)-4-((S)-2-((S)-3-(4-methoxyphenyl)-3-methyl-2-(methylamino)butanamido)-N,3,3-trimethylbutanamido)-2,5-dimethylhex-2-enamide] | 0.109 | –
6 | CN[C@@H](C(=O)N[C@H](C(=O)N(C)[C@H](/C=C(\C)C(=O)NS(=O)(=O)Cc1ccccc1)C(C)C)C(C)(C)C)C(C)(C)c1cccc(OC)c1 [Compound 92, (S,E)-N-(benzylsulfonyl)-4-((S)-2-((R)-3-(3-methoxyphenyl)-3-methyl-2-(methylamino)butanamido)-N,3,3-trimethylbutanamido)-2,5-dimethylhex-2-enamide] | 0.485 | –
7 | CN[C@H](C(=O)N[C@H](C(=O)N(C)[C@H](/C=C(\C)C(=O)NS(=O)(=O)Cc1ccccc1)C(C)C)C(C)(C)C)C(C)(C)c1cccc(OC)c1 [Compound 93, (S,E)-N-(benzylsulfonyl)-4-((S)-2-((S)-3-(3-methoxyphenyl)-3-methyl-2-(methylamino)butanamido)-N,3,3-trimethylbutanamido)-2,5-dimethylhex-2-enamide] | 0.196 | –
8 | CN[C@H](C(=O)N[C@H](C(=O)N(C)[C@H](/C=C(\C)C(=O)NS(=O)(=O)Cc1ccccc1)C(C)C)C(C)(C)C)C(C)(C)c1ccc(OCCO)cc1 [Compound 94, (S,E)-N-(benzylsulfonyl)-4-((S)-2-((S)-3-(4-(2-hydroxyethoxy)phenyl)-3-methyl-2-(methylamino)butanamido)-N,3,3-trimethylbutanamido)-2,5-dimethylhex-2-enamide] | 1.67 | –
9 | CN[C@H](C(=O)N[C@H](C(=O)N(C)[C@H](/C=C(\C)C(=O)NS(=O)(=O)Cc1ccccc1)C(C)C)C(C)(C)C)C(C)(C)c1ccc(OCCSC(C)=O)cc1 [Compound 95, S-2-(4-((S)-4-((S)-1-(((S,E)-2,5-dimethyl-6-oxo-6-(benzylsulfonamido)hex-4-en-3-yl)(methyl)amino)-3,3-dimethyl-1-oxobutan-2-ylamino)-2-methyl-3-(methylamino)-4-oxobutan-2-yl)phenoxy)ethylethanethioate] | 0.288 | –
10 | CN[C@H](C(=O)N[C@H](C(=O)N(C)[C@H](/C=C(\C)C(=O)NS(=O)(=O)Cc1ccccc1)C(C)C)C(C)(C)C)C(C)(C)c1ccc(OCCN)cc1 [Compound 96, (S,E)-4-((S)-2-((S)-3-(4-(2-aminoethoxy)phenyl)-3-methyl-2-(methylamino)butanamido)-N,3,3-trimethylbutanamido)-N-(benzylsulfonyl)-2,5-dimethylhex-2-enamide] | 10.3 | –
11 | CN[C@H](C(=O)N[C@H](C(=O)N(C)[C@H](/C=C(\C)C(=O)NS(=O)(=O)c1ccccc1NC(=O)C(F)(F)F)C(C)C)C(C)(C)C)C(C)(C)c1ccccc1 [Compound 97, (S,E)-2,5-dimethyl-N-(2-(2,2,2-trifluoroacetamido)phenylsulfonyl)-4-((S)—N,3,3-trimethyl-2-((S)-3-methyl-2-(methylamino)-3-phenylbutanamido)butanamido)hex-2-enamide] | 0.307 | EC50 [1]: 1.62 nM
12 | CN[C@H](C(=O)N[C@H](C(=O)N(C)[C@H](/C=C(\C)C(=O)NS(=O)(=O)c1ccccc1N)C(C)C)C(C)(C)C)C(C)(C)c1ccccc1 [Compound 98, (S,E)-N-(2-aminophenylsulfonyl)-2,5-dimethyl-4-((S)—N,3,3-trimethyl-2-((S)-3-methyl-2-(methylamino)-3-phenylbutanamido)butanamido)hex-2-enamide] | 0.077 | –
13 | CN[C@H](C(=O)N[C@H](C(=O)N(C)[C@H](/C=C(\C)C(=O)NS(=O)(=O)Cc1cccc(C(F)(F)F)c1)C(C)C)C(C)(C)C)C(C)(C)c1ccccc1 [Compound 102, (S,E)-2,5-dimethyl-N-(3-(trifluoromethyl)benzylsulfonyl)-4-((S)—N,3,3-trimethyl-2-((S)-3-methyl-2-(methylamino)-3-phenylbutanamido)butanamido)hex-2-enamide] | 0.289 | –
14 | CN[C@H](C(=O)N[C@H](C(=O)N(C)[C@H](/C=C(\C)C(=O)NS(=O)(=O)Cc1cccc(OC(F)(F)F)c1)C(C)C)C(C)(C)C)C(C)(C)c1ccccc1 [Compound 103, (S,E)-2,5-dimethyl-N-(3-(trifluoromethoxy)benzylsulfonyl)-4-((S)—N,3,3-trimethyl-2-((S)-3-methyl-2-(methylamino)-3-phenylbutanamido)butanamido)hex-2-enamide] | 0.209 | –
15 | CN[C@H](C(=O)N[C@H](C(=O)N(C)[C@H](/C=C(\C)C(=O)NS(=O)(=O)Cc1ccc(Cl)c(Cl)c1)C(C)C)C(C)(C)C)C(C)(C)c1ccccc1 [Compound 104, (S,E)-N-(3,4-dichlorobenzylsulfonyl)-2,5-dimethyl-4-((S)—N,3,3-trimethyl-2-((S)-3-methyl-2-(methylamino)-3-phenylbutanamido)butanamido)hex-2-enamide] | 0.272 | –
16 | CN[C@H](C(=O)N[C@H](C(=O)N(C)[C@H](/C=C(\C)C(=O)NS(=O)(=O)Cc1ccccc1C#N)C(C)C)C(C)(C)C)C(C)(C)c1ccccc1 [Compound 105, (S,E)-N-(2-cyanobenzylsulfonyl)-2,5-dimethyl-4-((S)—N,3,3-trimethyl-2-((S)-3-methyl-2-(methylamino)-3-phenylbutanamido)butanamido)hex-2-enamide] | 0.731 | EC50 (Table 6, Compound Cytotoxicity on Jurkat): 0.753 nM
17 | CCc1cc(N)ccc1S(=O)(=O)NC(=O)/C(C)=C/[C@H](C(C)C)N(C)C(=O)[C@@H](NC(=O)[C@@H](NC)C(C)(C)c1ccccc1)C(C)(C)C [Compound 107, (S,E)-N-(4-amino-2-ethylphenylsulfonyl)-2,5-dimethyl-4-((S)—N,3,3-trimethyl-2-((S)-3-methyl-2-(methylamino)-3-phenylbutanamido)butanamido)hex-2-enamide] | 0.043 | EC50 [3]: 0.043 nM
18 | CN[C@H](C(=O)N[C@H](C(=O)N(C)[C@H](/C=C(\C)C(=O)NS(=O)(=O)c1ccc(N)c(OC(F)(F)F)c1)C(C)C)C(C)(C)C)C(C)(C)c1ccccc1 [Compound 108, (S,E)-N-(4-amino-3-(trifluoromethoxy)phenylsulfonyl)-2,5-dimethyl-4-((S)—N,3,3-trimethyl-2-((S)-3-methyl-2-(methylamino)-3-phenylbutanamido)butanamido)hex-2-enamide] | 0.017 | EC50 [3]: 0.017 nM
